Patent US9056099B2, “Compositions and methods for treating viral diseases” (NovaDrug, LLC, priority 2010, dated 2015)

Tested on: HCV (JFH-1) in Huh7-1 cells
Assay: Assay for anti-HCV efficacy: JFH-1 HCV infection of Huh7-1 cultures, intracellular HCV RNA by RT-qPCR
Format: cell-based, Hepatitis C virus
Settings: Compound Example 1 series; % viral titer at 5 μM or 15 μM; HCV-infected Huh7-1 cultures
From the text: In the past, HCV studies involved mainly infected patients and chimpanzees. Recently, a robust HCV infection system was developed with cells derived from the Huh-7 human hepatoma cell line (see, for example, Yu et al., “Development of a cell-based hepatitis C virus infection fluorescent resonance energy transfer assay for high-throughput antiviral compound screening” Antimicrob Agents Chemother. 2009 53:4311-4319 for additional details regarding growing virus stocks, maintenance of the Huh-7 cells, infection parameters, and HCV titers determinations; and Yu & Uprichard “Cell-based hepatitis C virus infection fluorescence resonance energy transfer (FRET) assay for antiviral compound screening” Curr Protoc Microbiol. 2010; Chapter 17: Unit 17.5). Briefly, the assay is based on the unique JFH-1 HCV consensus cDNA derived from an HCV patient. Using reverse genetics, the infectious virus can be rescued from this HCV clone. The recovered viable JFH virus can be passaged serially in Huh-7 cells. For this reason, this system is amenable for testing the activity of potential drugs for their anti-HCV efficacy. The antiviral activity of the compounds described herein is tested in this system.
Initially, 6×10^3 Huh7-1 cells are incubated overnight in each well of collagen-coated BioCoat 96-well plates (BD Biosciences, Bedford, Mass.) in 0.2 mL 10% Medium composed of Dulbecco's modified Eagle's medium supplemented with 10% fetal bovine serum. Subsequently, at 2 day intervals, the cultures are replenished with fresh 0.2 mL 10% Medium. Once the cultures become confluent, they are continually replenished at 2 day intervals with fresh 0.2 mL 10% Medium that also includes 1% dimethyl sulfoxide (DMSO). After 20 days of these replenishments, the Huh7-1 cultures are incubated with fresh 1% Medium (same as 10% Medium except that the serum level is 1%) containing HCV at a multiplicity of infection (MOI) of 0.05 focus forming units (ffu)/cell. The HCV (JFH-1wt Huh7) stock titer is 1.5×10^5 ffu/mL. The next day (day 1 post-infection) and 2 days later (day 3 post-infection) the media are replenished with fresh 1% Medium containing the test compounds dissolved in DMSO. On the 5th day of treatment with the compounds, cell lysates are collected for RNA isolation and Real Time-quantitative Reverse Transcription Polymerase Chain Reaction (RT-qPCR) and culture media are collected for cytotoxicity analysis.
Total RNA is isolated from cells by the guanidine thiocyanate method using standard protocols. One μg RNA is used for cDNA synthesis using TaqMan reverse transcription reagents (Applied Biosystems, Foster City, Calif.) followed by real-time PCR using an Applied Biosystems 7300 real-time thermocycler. Illustrative thermal cycling consists of initial denaturation of 10 min at 95° C. followed by 40 cycles of denaturation (15 s at 95° C.) and annealing/extension (1 m at 60° C.). HCV and human glyceraldehyde-3-phosphate dehydrogenase (GAPDH) RNA levels are determined relative to a standard curve of serial dilutions of plasmid containing JFH-1 HCV or GAPDH cDNA. The PCR primers used to detect GAPDH and HCV are illustratively: GAPDH (NMX002046) 5′-GAAGGTGAAGGTCGGAGTC-3′ (SEQ ID NO: 5) (sense) and 5′-[…]-3′ (SEQ ID NO: 6) (anti-sense) JFH-1 HCV (AB047639) 5′-TCTGCGGAACCGGTGAGTA-3′ (SEQ ID NO: 7) (sense) and 5′-TCAGGCAGTACCACAAGGC-3′ (SEQ ID NO: 8) (anti-sense).
FIGS. 1-7 illustrate the intracellular HCV RNA levels when cultures are incubated with the selected test compounds at the doses shown. When HCV RNA levels are compared among the samples, the data may indicate that the compounds cause a dose dependent decrease in HCV RNA levels relative to the mock-treated (no compound added) HCV infected control.

Row | Compound | Activity (viral titer)
1 | O=C(c1ccccc1F)N1CC(c2ccsc2)C2CN(Cc3ccccc3F)CCC21 (stereo not drawn) | − (>60% viral titer at 15 μM (highest concentration tested))
2 | O=C(c1ccccc1F)N1C[C@H](c2ccsc2)[C@H]2CN(Cc3ccccn3)CC[C@H]21 | − (>60% viral titer at 15 μM (highest concentration tested))
3 | O=C(c1ccccc1F)N1C[C@H](c2ccsc2)[C@H]2CN(Cc3cccc(F)c3)CC[C@H]21 | ++ (≦60% viral titer at 5 μM)
4 | Cc1cccc(CN2CCC3C(C2)C(c2ccsc2)CN3C(=O)c2ccccc2F)c1 (stereo not drawn) | ++ (≦60% viral titer at 5 μM)
5 | O=C(c1ccccc1F)N1C[C@H](c2ccsc2)[C@H]2CN(Cc3cccnc3)CC[C@H]21 | − (>60% viral titer at 15 μM (highest concentration tested))
6 | O=C(c1ccccc1F)N1C[C@H](c2ccsc2)[C@H]2CN(Cc3ccc(F)cc3)CC[C@H]21 | +++ (≦30% viral titer at 5 μM)
7 | Cc1ccc(CN2CC[C@@H]3[C@H](C2)[C@@H](c2ccsc2)CN3C(=O)c2ccccc2F)cc1 | − (>60% viral titer at 15 μM (highest concentration tested))
8 | O=C(c1ccccc1F)N1CC(c2ccsc2)C2CN(Cc3ccncc3)CCC21 (stereo not drawn) | − (>60% viral titer at 15 μM (highest concentration tested))
9 | O=C(c1ccccc1F)N1CC(c2ccsc2)C2CN(Cc3ccccc3)CCC21 (stereo not drawn) | − (>60% viral titer at 15 μM (highest concentration tested))
10 | COc1ccc(CN2CCC3C(C2)C(c2ccc(F)cc2)CN3C(=O)c2ccccn2)cc1 (stereo not drawn) | − (>60% viral titer at 15 μM (highest concentration tested))
11 | COc1cccc(CN2CCC3C(C2)C(c2ccc(F)cc2)CN3C(=O)c2ccccn2)c1 (stereo not drawn) | − (>60% viral titer at 15 μM (highest concentration tested))
12 | O=C(c1ccccn1)N1CC(c2ccc(F)cc2)C2CN(Cc3ccccn3)CCC21 (stereo not drawn) | − (>60% viral titer at 15 μM (highest concentration tested))
13 | Cc1cccc(CN2CCC3C(C2)C(c2ccc(F)cc2)CN3C(=O)c2ccccn2)c1 (stereo not drawn) | − (>60% viral titer at 15 μM (highest concentration tested))
14 | O=C(c1ccccn1)N1CC(c2ccc(F)cc2)C2CN(Cc3cccnc3)CCC21 (stereo not drawn) | − (>60% viral titer at 15 μM (highest concentration tested))
15 | O=C(c1ccccn1)N1CC(c2ccc(F)cc2)C2CN(Cc3ccc(Cl)cc3)CCC21 (stereo not drawn) | − (>60% viral titer at 15 μM (highest concentration tested))
16 | O=C(c1cccs1)N1CC(c2ccc(F)cc2)C2CN(Cc3ccccc3F)CCC21 (stereo not drawn) | + (≦60% viral titer at 15 μM)
17 | Cc1ccccc1CN1CC[C@@H]2[C@H](C1)[C@@H](c1ccc(F)cc1)CN2C(=O)c1cccs1 | − (>60% viral titer at 15 μM (highest concentration tested))
18 | O=C(c1cccs1)N1C[C@H](c2ccc(F)cc2)[C@H]2CN(Cc3ccccn3)CC[C@H]21 | − (>60% viral titer at 15 μM (highest concentration tested))
19 | O=C(c1cccs1)N1C[C@H](c2ccc(F)cc2)[C@H]2CN(Cc3ccccc3)CC[C@H]21 | − (>60% viral titer at 15 μM (highest concentration tested))
20 | O=C(c1cccnc1)N1CC(c2ccc(F)cc2)C2CN(Cc3ccccc3Cl)CCC21 (stereo not drawn) | − (>60% viral titer at 15 μM (highest concentration tested))
21 | O=C(c1cccnc1)N1C[C@H](c2ccc(F)cc2)[C@H]2CN(Cc3ccc(Cl)cc3)CC[C@H]21 | +++ (≦30% viral titer at 5 μM)
22 | O=C(c1cccnc1)N1CC(c2ccc(F)cc2)C2CN(Cc3ccc(F)cc3)CCC21 (stereo not drawn) | − (>60% viral titer at 15 μM (highest concentration tested))

Row | Compound | Activity (viral titer)
23 | O=C(c1cccnc1)N1C[C@H](c2ccc(F)cc2)[C@H]2CN(Cc3ccncc3)CC[C@H]21 | − (>60% viral titer at 15 μM (highest concentration tested))
24 | O=C(c1cccnc1)N1C[C@H](c2ccc(F)cc2)[C@H]2CN(Cc3ccccc3)CC[C@H]21 | ++ (≦60% viral titer at 5 μM)
25 | O=C(c1ccc(F)cc1)N1C[C@H](c2ccsc2)[C@H]2CN(Cc3cccs3)CC[C@H]21 | − (>60% viral titer at 15 μM (highest concentration tested))
26 | O=C(c1ccncc1)N1CC(c2ccsc2)C2CN(Cc3cccs3)CCC21 (stereo not drawn) | − (>60% viral titer at 15 μM (highest concentration tested))
27 | O=C(c1ccncc1)N1CC(c2ccc(F)cc2)C2CN(Cc3cccs3)CCC21 (stereo not drawn) | − (>60% viral titer at 15 μM (highest concentration tested))
28 | O=C(c1ccncc1)N1CC(c2ccc(F)cc2)C2CN(Cc3ccsc3)CCC21 (stereo not drawn) | − (>60% viral titer at 15 μM (highest concentration tested))
29 | COc1cccc([C@H]2CN(C(=O)c3ccccc3)[C@@H]3CCN(Cc4ccccc4F)C[C@H]23)c1 | + (≦60% viral titer at 15 μM)
30 | COc1cccc(C2CN(C(=O)c3ccccc3)C3CCN(Cc4ccccn4)CC23)c1 (stereo not drawn) | − (>60% viral titer at 15 μM (highest concentration tested))
31 | COc1cccc([C@H]2CN(C(=O)c3ccccc3)[C@@H]3CCN(Cc4cccs4)C[C@H]23)c1 | − (>60% viral titer at 15 μM (highest concentration tested))
32 | COc1cccc([C@H]2CN(C(=O)c3ccccc3)[C@@H]3CCN(Cc4cccc(F)c4)C[C@H]23)c1 | − (>60% viral titer at 15 μM (highest concentration tested))
33 | COc1cccc(C2CN(C(=O)c3ccccc3)C3CCN(Cc4ccsc4)CC23)c1 (stereo not drawn) | ++ (≦60% viral titer at 5 μM)
34 | COc1cccc(C2CN(C(=O)c3ccccc3)C3CCN(Cc4ccc(C)cc4)CC23)c1 (stereo not drawn) | + (≦60% viral titer at 15 μM)
35 | COc1cccc([C@H]2CN(C(=O)c3ccccc3)[C@@H]3CCN(Cc4ccncc4)C[C@H]23)c1 | − (>60% viral titer at 15 μM (highest concentration tested))
36 | COc1cccc([C@H]2CN(C(=O)c3ccccc3)[C@@H]3CCN(Cc4ccccc4)C[C@H]23)c1 | − (>60% viral titer at 15 μM (highest concentration tested))
37 | COc1cccc(CN2CCC3C(C2)C(c2ccc(F)cc2)CN3C(=O)c2ccccc2)c1 (stereo not drawn) | +++ (≦30% viral titer at 5 μM)
38 | O=C(c1ccccc1)N1C[C@H](c2ccc(F)cc2)[C@H]2CN(Cc3ccc(F)cc3)CC[C@H]21 | +++ (≦30% viral titer at 5 μM)
39 | COc1ccc(CN2CC[C@@H]3[C@H](C2)[C@@H](c2ccc(F)cc2)CN3C(=O)c2ccccc2)cc1 | ++ (≦60% viral titer at 5 μM)
40 | O=C(c1ccccc1)N1CC(c2ccc(F)cc2)C2CN(Cc3ccccc3)CCC21 (stereo not drawn) | ++ (≦60% viral titer at 5 μM)
41 | COc1ccc(C2CN(C(=O)c3ccccc3)C3CCN(Cc4ccccc4F)CC23)cc1 (stereo not drawn) | ++ (≦60% viral titer at 5 μM)
42 | COc1ccc(C2CN(C(=O)c3ccccc3)C3CCN(Cc4cccs4)CC23)cc1 (stereo not drawn) | − (>60% viral titer at 15 μM (highest concentration tested))
43 | COc1ccc([C@H]2CN(C(=O)c3ccccc3)[C@@H]3CCN(Cc4ccsc4)C[C@H]23)cc1 | − (>60% viral titer at 15 μM (highest concentration tested))

Same assay, conditions: Compound Example 2 series; % viral titer at 5 μM or 15 μM; HCV-infected Huh7-1 cultures

Row | Compound | Activity (viral titer)
44 | COc1cccc(CN2CC[C@H]3[C@@H](C2)[C@H](c2ccc(F)cc2)CN3C(=O)c2cccnc2)c1 | + (≦60% viral titer at 15 μM)
45 | O=C(c1ccncc1)N1CC(c2ccsc2)C2CN(Cc3ccc(F)cc3)CCC21 (stereo not drawn) | + (≦60% viral titer at 15 μM)
46 | O=C(c1ccccc1)N1CC(c2ccsc2)C2CN(Cc3ccc(F)c(F)c3)CCC21 (stereo not drawn) | ++ (≦60% viral titer at 5 μM)
47 | O=C(c1ccccc1)N1C[C@@H](c2ccsc2)[C@@H]2CN(Cc3ccc(Cl)cc3)CC[C@@H]21 | ++ (≦60% viral titer at 5 μM)
48 | Cc1nn(C)cc1CN1CCC2C(C1)C(c1ccc(F)cc1)CN2C(=O)c1ccccc1 (stereo not drawn) | + (≦60% viral titer at 15 μM)
